Assay results as given in PubChem BioAssay AID2060895 (Molecular Pharmacology Branch, DTP, NCI, 2025).

Tested on: PDC 899932-113-R3-J6 complex spheroid viability
Assay: Anticancer human tumor 899932-113-R3-J6-PDC patient-derived melanoma cell line growth inhibition [RAS]
Conditions: for IC50: curve of first compound; for viability, T/C: stronger effect = lower value
Source text: RAS pathway inhibitors in Combinations in Complex Spheroids
A high-throughput screen of multi-cell type tumor spheroids was designed to identify active combinations of RAS pathway inhibitors and targeted small molecules. Complex spheroids include a stromal component modeled by human endothelial cells (HUVEC) and fibroblasts modeled by human mesenchymal stem cells (MSCs). The concentration ranges selected for each drug and investigational agent were based upon clinically achievable concentrations if the clinical Cmax of the agent was known.
Compounds. The drugs and investigational agents: abemaciclib (NSC768073), cobimetinib (NSC768068), divarasib (GDC6063, NSC841802), docetaxel (NSC628503), GDC-1971 (RLY-1971, NSC841576), gemcitabine (NSC613327), inavolisib (NSC800729), ipatasertib (NSC767898), KB-0742 (NSC834161), MRTX-1133 (NSC836407), osimertinib (NSC779217), RMC-4630 (NSC839698), RMC-6236 (NSC851965), RMC-6291 (NSC852671), Ro-3306 (NSC812927), sapanisertib (NSC764658), SN-38 (NSC673596), staurosporine (NSC755774), SY5609 (NSC837396), and tovorafenib (DAY101, NSC766906), were obtained from the National Cancer Institute (NCI) Developmental Therapeutics Program Chemical Repository. The FDA-approved anticancer drug set is available from the NCI Developmental Therapeutics Program. […] The stock solutions were prepared in dimethyl sulfoxide (DMSO, Sigma-Aldrich, St. Louis, MO, cat. D2650) at 800-fold the tested concentration and stored at -70 degrees C prior to their use. All drugs and investigational agents were tested over a range starting from a high concentration at or near the clinical Cmax and decreasing in half-log increments. If the clinical Cmax for an agent had not been determined, the highest concentration tested was 10 microM.
Cell Culture. All cells were maintained in an incubator at 37 degrees C and 5% CO2 with 95% humidity. The PDC lines were cultured according to standard operating procedures established by the NCI PDMR. All PDCs were thawed and cultured in Matrigel-coated flasks prepared with a working solution of 1X Ham's F-12 nutrient mix, without supplementation (Invitrogen, Waltham, MA, cat. 11765054), 100 U/mL penicillin-streptomycin (Invitrogen, cat. 15140122), and 2.5% Matrigel (Corning Inc., Corning, NY, cat. 354248) for the first three passages. The 362531-283-R-J2-PDC and 782815-120-R-J1-PDC lines were cultured in 6C/Colon 1B media, which includes advanced DMEM/F-12 (Thermo Fisher Scientific, cat. 12634028), 10 mM HEPES (Thermo Fisher Scientific, cat. 15630080), 1X GlutaMAX supplement (Thermo Fisher Scientific, cat. 35050061), 0.1 mg/mL primocin (InvivoGen, San Diego, CA, cat. ant-pm-2), 10% defined fetal bovine serum, heat inactivated (HyClone Laboratories Inc., Logan, UT, cat. SH30070.03HI), 50% L-WRN conditioned media (ATCC, cat. CRL-3276), 1.25 mM N-Acetyl-L-cysteine (Sigma-Aldrich, cat. A9165), 10 mM nicotinamide (Sigma-Aldrich, cat. N0636), 1X B-27 supplement (Thermo Fisher Scientific, cat. 17504044), 1X N-2 supplement (Thermo Fisher Scientific, cat. 17502048), 50 ng/mL human EGF (Thermo Fisher Scientific, cat. PHG0311), and 10 microM Y-27632 dihydrochloride (Tocris Bioscience, cat. 1254). The K12877-001-R-J1-PDC line was cultured in 6I media, which includes all 6C/Colon 1B media plus 10 ng/mL human FGF-10 (PeproTech, cat. 100-26), 1 ng/mL human FGF-2 (PeproTech, cat. 100-18B), 1 µM prostaglandin E2 (Tocris Bioscience, cat. 2296), […] hydrocortisone (Sigma-Aldrich, cat. H4001), and […] bovine insulin (Sigma-Aldrich, cat. I6634). The K86415-001-R-J1-PDC line was cultured in 6D media, which includes all 6C/Colon 1B media components minus the L-WRN conditioned media. The 485176-168-R4-J1-PDC was cultured in PANC media, which includes all 6C/Colon 1B media plus 100 ng/mL human FGF-10 (PeproTech, cat. 100-26), 500 nM SB-431542 (Selleckchem, cat. S1067), and 10 nM gastrin (Tocris Bioscience, cat. 3006). […]

[1] = second compound 0.0316 µM, first compound 0.0316 µM
[2] = second compound 0.0316 µM, first compound 0.1 µM
[3] = second compound 0.0316 µM, first compound 0.316 µM
[4] = second compound 0.0316 µM, first compound 1 µM
[5] = second compound 0.1 µM, first compound 0.0316 µM
[6] = second compound 0.1 µM, first compound 0.1 µM
[7] = second compound 0.1 µM, first compound 0.316 µM
[8] = second compound 0.1 µM, first compound 1 µM
[9] = second compound 0.316 µM, first compound 0.0316 µM
[10] = second compound 0.316 µM, first compound 0.1 µM
[11] = second compound 0.316 µM, first compound 0.316 µM
[12] = second compound 0.316 µM, first compound 1 µM
[13] = second compound 1 µM, first compound 0.0316 µM
[14] = second compound 1 µM, first compound 0.1 µM
[15] = second compound 1 µM, first compound 0.316 µM
[16] = second compound 1 µM, first compound 1 µM
[17] = second compound 3.16 µM, first compound 0.0316 µM
[18] = second compound 3.16 µM, first compound 0.1 µM
[19] = second compound 3.16 µM, first compound 0.316 µM
[20] = second compound 3.16 µM, first compound 1 µM
[21] = second compound 10 µM, first compound 0.0316 µM
[22] = second compound 10 µM, first compound 0.1 µM
[23] = second compound 10 µM, first compound 0.316 µM
[24] = second compound 10 µM, first compound 1 µM
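Throughout, for viability, T/C: spheroids exposed to agents for seven days before readout; 100% = DMSO vehicle control wells.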

SMILES: NC1c2ccccc2OC12CCN(c1cnc3c(N4CCCc5ncccc54)n[nH]c3n1)CC2 (centres undefined) + C#Cc1c(F)ccc2cc(O)cc(-c3ncc4c(N5CC6CCC(C5)N6)nc(OCC56CCCN5CC(F)C6)nc4c3F)c12
- IC50 (second compound 0.0316 µM): > 10000 nM
- IC50 (second compound 0.1 µM): > 10000 nM
- IC50 (second compound 0.316 µM): > 10000 nM
- IC50 (second compound 1 µM): > 10000 nM
- IC50 (second compound 3.16 µM): > 10000 nM
- IC50 (second compound 10 µM): > 10000 nM
- viability, T/C [1]: 108%
- viability, T/C [2]: 103%
- viability, T/C [3]: 117%
- viability, T/C [4]: 121%
- viability, T/C (second compound 0.0316 µM, first compound 3.16 µM): 104%
- viability, T/C (second compound 0.0316 µM, first compound 10 µM): 98.8%
- viability, T/C [5]: 111%
- viability, T/C [6]: 115%
- viability, T/C [7]: 114%
- viability, T/C [8]: 114%
- viability, T/C (second compound 0.1 µM, first compound 3.16 µM): 117%
- viability, T/C (second compound 0.1 µM, first compound 10 µM): 96.4%
- viability, T/C [9]: 108%
- viability, T/C [10]: 120%
- viability, T/C [11]: 105%
- viability, T/C [12]: 116%
- viability, T/C (second compound 0.316 µM, first compound 3.16 µM): 110%
- viability, T/C (second compound 0.316 µM, first compound 10 µM): 96.6%
- viability, T/C [13]: 106%
- viability, T/C [14]: 104%
- viability, T/C [15]: 124%
- viability, T/C [16]: 112%
- viability, T/C (second compound 1 µM, first compound 3.16 µM): 105%
- viability, T/C (second compound 1 µM, first compound 10 µM): 111%
- viability, T/C [17]: 134%
- viability, T/C [18]: 112%
- viability, T/C [19]: 135%
- viability, T/C [20]: 133%
- viability, T/C (second compound 3.16 µM, first compound 3.16 µM): 120%
- viability, T/C (second compound 3.16 µM, first compound 10 µM): 107%
- viability, T/C [21]: 123%
- viability, T/C [22]: 126%
- viability, T/C [23]: 120%
- viability, T/C [24]: 117%
- viability, T/C (second compound 10 µM, first compound 3.16 µM): 112%
- viability, T/C (second compound 10 µM, first compound 10 µM): 86.5%

SMILES: Nc1ccn(C2OC(CO)C(O)C2(F)F)c(=O)n1 (centres undefined) + C#Cc1c(F)ccc2cc(O)cc(-c3ncc4c(N5CC6CCC(C5)N6)nc(OCC56CCCN5CC(F)C6)nc4c3F)c12
- IC50 (second compound 0.0316 µM): 17.6 nM
- IC50 (second compound 0.1 µM): 19.3 nM
- IC50 (second compound 0.316 µM): 17.1 nM
- IC50 (second compound 1 µM): 19.2 nM
- IC50 (second compound 3.16 µM): 16.5 nM
- IC50 (second compound 10 µM): 17.6 nM
- viability, T/C (second compound 0.0316 µM, first compound 0.00316 µM): 102%
- viability, T/C (second compound 0.0316 µM, first compound 0.01 µM): 65.1%
- viability, T/C [1]: 35.3%
- viability, T/C [2]: 21.2%
- viability, T/C [3]: 18.6%
- viability, T/C [4]: 22.1%
- viability, T/C (second compound 0.1 µM, first compound 0.00316 µM): 95%
- viability, T/C (second compound 0.1 µM, first compound 0.01 µM): 71.7%
- viability, T/C [5]: 34.3%
- viability, T/C [6]: 18.9%
- viability, T/C [7]: 20.5%
- viability, T/C [8]: 20.6%
- viability, T/C (second compound 0.316 µM, first compound 0.00316 µM): 99.1%
- viability, T/C (second compound 0.316 µM, first compound 0.01 µM): 65.1%
- viability, T/C [9]: 33.7%
- viability, T/C [10]: 17.9%
- viability, T/C [11]: 20.2%
- viability, T/C [12]: 20.1%
- viability, T/C (second compound 1 µM, first compound 0.00316 µM): 99.2%
- viability, T/C (second compound 1 µM, first compound 0.01 µM): 70.4%
- viability, T/C [13]: 35.6%
- viability, T/C [14]: 16.4%
- viability, T/C [15]: 15.3%
- viability, T/C [16]: 20.8%
- viability, T/C (second compound 3.16 µM, first compound 0.00316 µM): 103%
- viability, T/C (second compound 3.16 µM, first compound 0.01 µM): 65.6%
- viability, T/C [17]: 29.9%
- viability, T/C [18]: 19.8%
- viability, T/C [19]: 17.5%
- viability, T/C [20]: 18.8%
- viability, T/C (second compound 10 µM, first compound 0.00316 µM): 102%
- viability, T/C (second compound 10 µM, first compound 0.01 µM): 67.2%
- viability, T/C [21]: 33.5%
- viability, T/C [22]: 15.2%
- viability, T/C [23]: 18.3%
- viability, T/C [24]: 19.2%
